Test system: paw edema induced by phospholipase A2 from Naja naja venom
Test: Phospholipase A2 rat paw edema
Format: in vivo, Lewis rats
Settings: 30 mg/kg ip, 1 hr prior to PLA2, 2 hr, read-out: % Inhib of PLA2 Paw Edema 2 hr 30 mg/kg ip

Structure (SMILES) | inhibition in vivo at 30 mg/kg [%]
CCCCCCCCCCCCCCCCCCOc1cc(OCCCOc2cccc(N)c2)cc(C(=O)N(CC(=O)O)CC(=O)O)c1 [Example 23, N-(Carboxymethyl)-N-[3-[3-(3-aminophenoxy)propoxy]-5-(octadecyloxy)benzoyl]glycine] | 40
CCCCCCCCCCCCCCCCCCOc1cc(OCCCOc2cccc([N+](=O)[O-])c2)cc(C(=O)N(CC(=O)O)CC(=O)O)c1 [Example 22, N-(Carboxymethyl)-N-[3-[3-(3-nitrophenoxy)propoxy]-5-(octadecyloxy)benzoyl]glycine] | 64
CCCCCCCCCCOc1cc(OCCCCCCCCCC)cc(C(=O)C(=O)N(CC(=O)O)CC(=O)O)c1 [Example 73, N-(Carboxymethyl)-N-[[3,5-bis(decyloxy)phenyl]-1,2-dioxoethyl]glycine] | 32
CCCCCCCCCCCCCCCCCCOc1ccc(O)c(C(=O)N(CC(=O)O)CC(=O)O)c1 [Example 62, N-(carboxymethyl)-N-[2-hydroxy-5-(octadecyloxy)benzoyl]glycine] | 60
CCCCCCCCCCCCCCCCCCOc1ccc(C(=O)C(=O)N(CC(=O)O)CC(=O)O)cc1 [Example 65, N-(Carboxymethyl)-N-[2-[4-(octadecyloxy)phenyl]-1,2-dioxoethyl]glycine] | 71
CCCCCCCCCCCCCC(=O)Nc1cc(NC(=O)CCCCCCCCCCCCC)cc(C(=O)N(CC(=O)O)CC(=O)O)c1 [Example 56, N-(Carboxymethyl)-N-[3,5-bis(1-oxotetradecylamino)benzoyl]glycine] | 57
CCCCCCCCCCCCCCCCCCOc1cccc(C(=O)N(CC(=O)O)CC(=O)O)c1 [Example 4, N-(Carboxymethyl)-N-[3-(octadecyloxy)benzoyl]glycine] | 35
CCCCCCCCCCOc1cc(OCCCCCCCCCC)cc(C(=O)N(CC(=O)O)CC(=O)O)c1 [Example 11, N-(Carboxymethyl)-N-[3,5-bis(decyloxy)benzoyl]glycine] | 0
CCCCCCCCCCCCCCCCCCOc1cc(OCCOCCOCCOCC)cc(C(=O)N(CC(=O)O)CC(=O)O)c1 [Example 48, N-(carboxymethyl)-N-[3-[2-[2-(2-ethoxyethoxy)ethoxy]ethoxy]-(5-octadecyloxy)benzoyl]glycine] | 43

Source: patent US5298652A, “N-substituted glycines, inhibitors of phospholipase A2” (Hoffmann-La Roche Inc., priority 1992, dated 1994)
